Measurements reported in the NIST ThermoML archive (doi:10.1021/acs.jced.6b00332).
± gives the expanded uncertainty stated by the source.

Test: mn = molality of the nth substance listed, in mol/kg
Conditions: 100 kPa, Liquid; for speed of sound: Frequency=3 MHz, Sing-around technique in a fixed-path interferometer; for mass density: Vibrating tube method

CCCCCCCCCCCC[N+](C)(C)C.[Br-] [dodecyltrimethylammonium bromide] + O
Conditions | mass density [kg/m3] | speed of sound [m/s]
293.15 K, m1 = 0.003 | 998.31 ± 0.3 | 1483.3 ± 1.2
293.15 K, m1 = 0.006 | 998.37 ± 0.33 | 1484.2 ± 1.4
293.15 K, m1 = 0.009 | 998.43 ± 0.3 | 1484.9 ± 1.5
293.15 K, m1 = 0.012 | 998.49 ± 0.3 | 1485.6 ± 1.3
293.15 K, m1 = 0.015 | 998.54 ± 0.3 | 1486.3 ± 1.2
293.15 K, m1 = 0.018 | 998.6 ± 0.3 | 1486.7 ± 1.2
293.15 K, m1 = 0.021 | 998.65 ± 0.3 | 1486.8 ± 1.2
293.15 K, m1 = 0.024 | 998.7 ± 0.3 | 1486.9 ± 1.2
293.15 K, m1 = 0.027 | 998.75 ± 0.3 | 1487 ± 1.2
293.15 K, m1 = 0.03 | 998.81 ± 0.3 | 1487 ± 1.2
293.15 K, m1 = 0.033 | 998.87 ± 0.3 | 1487.1 ± 1.2
293.15 K, m1 = 0.036 | 998.92 ± 0.3 | 1487.1 ± 1.2
293.15 K, m1 = 0.039 | 998.95 ± 0.3 | 1487.1 ± 1.2
293.15 K, m1 = 0.042 | 999 ± 0.3 | 1487.1 ± 1.3
293.15 K, m1 = 0.045 | 999.05 ± 0.3 | 1487 ± 1.2
298.15 K, m1 = 0.003 | 997.2 ± 0.3 | 1497.2 ± 1.2
298.15 K, m1 = 0.006 | 997.26 ± 0.3 | 1497.9 ± 1.2
298.15 K, m1 = 0.009 | 997.32 ± 0.3 | 1498.6 ± 1.2
298.15 K, m1 = 0.012 | 997.37 ± 0.3 | 1499.2 ± 1.2
298.15 K, m1 = 0.015 | 997.43 ± 0.3 | 1499.9 ± 1.2
298.15 K, m1 = 0.018 | 997.49 ± 0.3 | 1500.2 ± 1.2
298.15 K, m1 = 0.021 | 997.53 ± 0.3 | 1500.3 ± 1.2
298.15 K, m1 = 0.024 | 997.58 ± 0.3 | 1500.3 ± 1.2
298.15 K, m1 = 0.027 | 997.63 ± 0.3 | 1500.4 ± 1.2
298.15 K, m1 = 0.03 | 997.67 ± 0.3 | 1500.4 ± 1.2
298.15 K, m1 = 0.033 | 997.71 ± 0.3 | 1500.5 ± 1.2
298.15 K, m1 = 0.036 | 997.75 ± 0.3 | 1500.4 ± 1.2
298.15 K, m1 = 0.039 | 997.79 ± 0.3 | 1500.5 ± 1.2
298.15 K, m1 = 0.042 | 997.82 ± 0.3 | 1500.4 ± 1.2
298.15 K, m1 = 0.045 | 997.85 ± 0.3 | 1500.5 ± 1.2
303.15 K, m1 = 0.003 | 995.71 ± 0.3 | 1509.7 ± 1.2
303.15 K, m1 = 0.006 | 995.76 ± 0.3 | 1510.3 ± 1.2
303.15 K, m1 = 0.009 | 995.82 ± 0.3 | 1511 ± 1.2
303.15 K, m1 = 0.012 | 995.87 ± 0.3 | 1511.6 ± 1.2
303.15 K, m1 = 0.015 | 995.92 ± 0.3 | 1512 ± 1.2
303.15 K, m1 = 0.018 | 995.97 ± 0.3 | 1512.2 ± 1.2
303.15 K, m1 = 0.021 | 996.02 ± 0.3 | 1512.2 ± 1.2
303.15 K, m1 = 0.024 | 996.07 ± 0.3 | 1512.2 ± 1.2
303.15 K, m1 = 0.027 | 996.11 ± 0.3 | 1512.2 ± 1.2
303.15 K, m1 = 0.03 | 996.16 ± 0.3 | 1512.2 ± 1.2
303.15 K, m1 = 0.033 | 996.21 ± 0.3 | 1512.2 ± 1.2
303.15 K, m1 = 0.036 | 996.24 ± 0.3 | 1512.2 ± 1.2
303.15 K, m1 = 0.039 | 996.29 ± 0.3 | 1512.3 ± 1.2
303.15 K, m1 = 0.042 | 996.32 ± 0.3 | 1512.2 ± 1.2
303.15 K, m1 = 0.045 | 996.36 ± 0.3 | 1512.3 ± 1.2
308.15 K, m1 = 0.003 | 994.26 ± 0.3 | 1520.3 ± 1.2
308.15 K, m1 = 0.006 | 994.31 ± 0.3 | 1520.9 ± 1.2
308.15 K, m1 = 0.009 | 994.36 ± 0.3 | 1521.5 ± 1.2
308.15 K, m1 = 0.012 | 994.41 ± 0.3 | 1522 ± 1.2
308.15 K, m1 = 0.015 | 994.46 ± 0.3 | 1522.6 ± 1.2
308.15 K, m1 = 0.018 | 994.51 ± 0.3 | 1522.6 ± 1.2
308.15 K, m1 = 0.021 | 994.55 ± 0.3 | 1522.6 ± 1.2
308.15 K, m1 = 0.024 | 994.59 ± 0.3 | 1522.6 ± 1.2
308.15 K, m1 = 0.027 | 994.63 ± 0.3 | 1522.6 ± 1.2
308.15 K, m1 = 0.03 | 994.67 ± 0.3 | 1522.5 ± 1.2
308.15 K, m1 = 0.033 | 994.72 ± 0.3 | 1522.5 ± 1.2
308.15 K, m1 = 0.036 | 994.77 ± 0.3 | 1522.5 ± 1.2
308.15 K, m1 = 0.039 | 994.79 ± 0.3 | 1522.5 ± 1.2
308.15 K, m1 = 0.042 | 994.82 ± 0.3 | 1522.6 ± 1.2
308.15 K, m1 = 0.045 | 994.84 ± 0.3 | 1522.5 ± 1.2
313.15 K, m1 = 0.003 | 992.29 ± 0.3 | 1529.4 ± 1.2
313.15 K, m1 = 0.006 | 992.33 ± 0.3 | 1529.9 ± 1.2
313.15 K, m1 = 0.009 | 992.38 ± 0.3 | 1530.4 ± 1.2
313.15 K, m1 = 0.012 | 992.42 ± 0.3 | 1530.9 ± 1.2
313.15 K, m1 = 0.015 | 992.47 ± 0.3 | 1531.4 ± 1.2
313.15 K, m1 = 0.018 | 992.51 ± 0.3 | 1531.5 ± 1.2
313.15 K, m1 = 0.021 | 992.55 ± 0.3 | 1531.4 ± 1.2
313.15 K, m1 = 0.024 | 992.59 ± 0.3 | 1531.4 ± 1.2
313.15 K, m1 = 0.027 | 992.63 ± 0.3 | 1531.3 ± 1.2
313.15 K, m1 = 0.03 | 992.67 ± 0.3 | 1531.3 ± 1.2
313.15 K, m1 = 0.033 | 992.71 ± 0.3 | 1531.2 ± 1.2
313.15 K, m1 = 0.036 | 992.77 ± 0.3 | 1531.3 ± 1.2
313.15 K, m1 = 0.039 | 992.81 ± 0.3 | 1531.3 ± 1.2
313.15 K, m1 = 0.042 | 992.87 ± 0.3 | 1531.3 ± 1.2
313.15 K, m1 = 0.045 | 992.9 ± 0.3 | 1531.2 ± 1.2
318.15 K, m1 = 0.003 | 990.28 ± 0.3 | 1536.3 ± 1.2
318.15 K, m1 = 0.006 | 990.33 ± 0.33 | 1536.7 ± 1.3
318.15 K, m1 = 0.009 | 990.37 ± 0.32 | 1537.2 ± 1.2
318.15 K, m1 = 0.012 | 990.39 ± 0.31 | 1537.8 ± 1.2
318.15 K, m1 = 0.015 | 990.42 ± 0.3 | 1538.2 ± 1.2
318.15 K, m1 = 0.018 | 990.45 ± 0.3 | 1538.4 ± 1.2
318.15 K, m1 = 0.021 | 990.48 ± 0.3 | 1538.6 ± 1.2
318.15 K, m1 = 0.024 | 990.52 ± 0.3 | 1538.7 ± 1.2
318.15 K, m1 = 0.027 | 990.55 ± 0.3 | 1538.7 ± 1.2
318.15 K, m1 = 0.03 | 990.57 ± 0.3 | 1538.7 ± 1.2
318.15 K, m1 = 0.033 | 990.61 ± 0.3 | 1538.9 ± 1.2
318.15 K, m1 = 0.036 | 990.64 ± 0.3 | 1538.9 ± 1.2
318.15 K, m1 = 0.039 | 990.67 ± 0.3 | 1539 ± 1.2
318.15 K, m1 = 0.042 | 990.7 ± 0.3 | 1539.1 ± 1.2
318.15 K, m1 = 0.045 | 990.72 ± 0.3 | 1539.1 ± 1.2

CCCC[N+](CCCC)(CCCC)CCCC.[Br-] [tetrabutylammonium bromide] + O
m1 = 0.01
Conditions | mass density [kg/m3] | speed of sound [m/s]
293.15 K | 998.57 ± 0.3 | 1485.3 ± 1.2
298.15 K | 997.35 ± 0.3 | 1499.2 ± 1.2
303.15 K | 995.88 ± 0.3 | 1511.4 ± 1.2
308.15 K | 994.29 ± 0.3 | 1521.9 ± 1.2
313.15 K | 992.33 ± 0.3 | 1531 ± 1.2
318.15 K | 990.43 ± 0.3 | 1538.6 ± 1.2

CCCCC[N+](CCCCC)(CCCCC)CCCCC.[Br-] [tetrapentylammonium bromide] + O
m1 = 0.01
Conditions | mass density [kg/m3] | speed of sound [m/s]
293.15 K | 998.34 ± 0.3 | 1485.3 ± 1.2
298.15 K | 997 ± 0.3 | 1499.1 ± 1.2
303.15 K | 995.7 ± 0.3 | 1511.2 ± 1.2
308.15 K | 994.05 ± 0.3 | 1521.6 ± 1.2
313.15 K | 991.93 ± 0.3 | 1530.5 ± 1.2
318.15 K | 990.16 ± 0.3 | 1537.9 ± 1.2
